Data published in US20230107983A1, “COMPOUND ISOLATED FROM TORILIDIS FRUCTUS, AND ANTICANCER PHARMACEUTICAL COMPOSITION CONTAINING SAME AS ACTIVE INGREDIENT” (PHARMA-GENE CO., LTD., priority 2020, published 2023).

Key:
[1] = Change in mouse weight, A549 xenograft, intraperitoneal administration; type: in vivo, nude mouse; parameters: Change in mouse weight: unit not given here; details: once a day
Description: The Tr-9 was dissolved in sterile PBS and 1 mM Tr-9 200 µℓ was intraperitoneally administered per mouse once a day, and all animals were weighed immediately before the start of drug (Tr-9) administration and 10 times in total from day 2 to day 23 after cancer cell transplantation (Table 4).
(§1) In Table 4 above, data values are the mean ± standard deviation. After measuring the body weight, the animals were killed using CO2 gas, and the tumor was separated and the size was measured in 3 directions using a vernier caliper for each animal. Then, the change in tumor size was expressed as a calculated value of (length × width × height)/2 (Table 4).

[2] = test system: human colorectal cancer cells (HCT116); assay: Nude mouse xenograft model of human colorectal cancer cells, intraperitoneal administration; type: in vivo
Description: Anticancer activity against colorectal cancer according to the intraperitoneal administration of Tr-9 was confirmed through a nude mouse xenograft model of human colorectal cancer cells (HCT116). In Example 5, Example 4 was repeated except for using colorectal cancer cells.
(§2) Specific pathogen-free (SPF) nude mice of the BALB/C strain were used as the animal model. Animals were bred in the animal room of Daedeok Campus of Hannam University maintained at a temperature of 23±3° C., relative humidity of 55±15%, ventilation frequency of 10-20 times/hr, lighting time of 12 hours(lights on at 8 am and off at 8 pm) and illuminance of 150 to 300 Lux.
(§3) For cancer cell transplantation, all cells were collected and counted on the last day of culture, and the concentration of human colorectal cancer cell line HCT116 was adjusted to 5×10^6 cells/ml using PBS. The adjusted cell culture solution was injected subcutaneously into the auxiliary region between the right scapula and chest wall at 0.2 ml (1×10^6 cells/mouse) per mouse.
(§4) The Tr-9 was dissolved in sterile PBS and 1 mM Tr-9 200 µℓ was intraperitoneally administered per mouse once a day, and all animals were weighed immediately before the start of drug (Tr-9) administration and 9 times in total from day 2 to day 21 after cancer cell transplantation (Table 7).
as §1, with “7” for “4”, “8).” for “4).”
Tumor size increase is (Δt)═ Vt—Vo, wherein Vt is the value of measuring the tumor size by date, and Vo is the value of measuring the initial tumor size.

[3] = Change in mouse weight, HCT116 xenograft, intraperitoneal administration; type: in vivo, nude mouse; parameters: Change in mouse weight: unit not given here; details: intraperitoneal once a day
Description: as §4
as §1, with “7” for “4”, “8).” for “4).”

[4] = test system: human lung cancer cells (A549); assay: Nude mouse xenograft model of human lung cancer cells, oral administration; type: in vivo; parameters: Tumor size increase (Vt—V0): unit not given here
Description: as §2, with “Anticancer activity against lung cancer according to the oral administration of Tr-9 was confirmed through a nude mouse xenograft model of human lung cancer cells (A549). Specific” for “Specific”
as §3, with “lung” for “colorectal”, “A549” for “HCT116”
The Tr-9 was dissolved in sterile PBS and 1 mM Tr-9 200 µℓ was orally administered per mouse once a day, and all animals were weighed immediately before the start of drug (Tr-9) administration and 10 times in total from day 2 to day 23 after cancer cell transplantation (Table 1).
as §1, with “1” for “4”, “2).” for “4).”
Tumor size increase is (Δt)= Vt—Vo, wherein Vt is the value of measuring the tumor size by date, and Vo is the value of measuring the initial tumor size.

[5] = intraperitoneal once a day, Day 21

Structure (SMILES): C/C=C(/C)C(=O)O[C@@H]1C[C@H](C)[C@H]2CC(=O)C(C)=C2C[C@@H]1C(C)(C)OC(C)=O [Torilin, torilin, reference compound]
- Change in mouse weight ([1]; 0 Day after drug treatment): 100.0 ±0.0
- Change in mouse weight ([1]; 2 Days after drug treatment): 98.2 ±1.5
- Change in mouse weight ([1]; 5 Days after drug treatment): 98.2 ±1.4
- Change in mouse weight ([1]; 7 Days after drug treatment): 97.6 ±1.0
- Change in mouse weight ([1]; 9 Days after drug treatment): 102.7 ±2.7
- Change in mouse weight ([1]; 12 Days after drug treatment): 101.0 ±3.1
- Change in mouse weight ([1]; 14 Days after drug treatment): 101.2 ±2.6
- Change in mouse weight ([1]; 16 Days after drug treatment): 102.3 ±3.8
- Change in mouse weight ([1]; 19 Days after drug treatment): 103.4 ±5.2
- Change in mouse weight ([1]; 21 Days after drug treatment): 102.9 ±4.1
- Change in mouse weight ([1]; 23 Days after drug treatment): 105.0 ±4.6
- difference in body weight according to the administration of the drugs ([1]; day 2 to day 23): almost no difference in body weight
- Tumor size increase (Vt−V0) ([2]; intraperitoneal once a day, Day 0, table title: Change in tumor size): 0.0±0.0
- Tumor size increase (Vt−V0) ([2]; intraperitoneal once a day, Day 2, table title: Change in tumor size): 54.7±16.2
- Inhibition rate (tumor size increase) ([2]; intraperitoneal once a day, Day 2, vs control): 17.4%
- Tumor size increase (Vt−V0) ([2]; intraperitoneal once a day, Day 5, table title: Change in tumor size): 151.4±33.3
- Inhibition rate (tumor size increase) ([2]; intraperitoneal once a day, Day 5, vs control): 16.3%
- Tumor size increase (Vt−V0) ([2]; intraperitoneal once a day, Day 7, table title: Change in tumor size): 362.7±59.4
- Inhibition rate (tumor size increase) ([2]; intraperitoneal once a day, Day 7, vs control): 18.9%
- Tumor size increase (Vt−V0) ([2]; intraperitoneal once a day, Day 9, table title: Change in tumor size): 565.9±142.4
- Inhibition rate (tumor size increase) ([2]; intraperitoneal once a day, Day 9, vs control): 19.1%
- Tumor size increase (Vt−V0) ([2]; intraperitoneal once a day, Day 11, table title: Change in tumor size): 816.9±248.1
- Inhibition rate (tumor size increase) ([2]; intraperitoneal once a day, Day 11, vs control): 20.6%
- Tumor size increase (Vt−V0) ([2]; intraperitoneal once a day, Day 14, table title: Change in tumor size): 1086.2±458.4
- Inhibition rate (tumor size increase) ([2]; intraperitoneal once a day, Day 14, vs control): 21.2%
- Tumor size increase (Vt−V0) ([2]; intraperitoneal once a day, Day 16, table title: Change in tumor size): 1319.9±614.0
- Inhibition rate (tumor size increase) ([2]; intraperitoneal once a day, Day 16, vs control): 26.5%
- Tumor size increase (Vt−V0) ([2]; intraperitoneal once a day, Day 18, table title: Change in tumor size): 1555.6±640.5
- Inhibition rate (tumor size increase) ([2]; intraperitoneal once a day, Day 18, vs control): 24.0%
- Tumor weight at Day 21 [2, 5]: 2.85 ± 0.834 g
- Tumor weight reduction rate compared to control group [2, 5]: 25.9%
- Tumor size increase (Vt−V0) ([2]; intraperitoneal once a day, Day 21, table title: Change in tumor size): 1973.3±821.1
- Inhibition rate (tumor size increase) ([2]; intraperitoneal once a day, Day 21, vs control): 25.2%
- tumor size compared to the control group ([2]; intraperitoneal, after day 14): statistically significantly smaller
- Change in mouse weight ([3]; 0 Day after drug treatment): 100.0 ±0.0
- Change in mouse weight ([3]; 2 Days after drug treatment): 100.5 ±1.8
- Change in mouse weight ([3]; 5 Days after drug treatment): 101.4 ±2.7
- Change in mouse weight ([3]; 7 Days after drug treatment): 98.4 ±2.7
- Change in mouse weight ([3]; 9 Days after drug treatment): 98.4 ±2.8
- Change in mouse weight ([3]; 11 Days after drug treatment): 98.8 ±3.2
- Change in mouse weight ([3]; 14 Days after drug treatment): 98.2 ±4.3
- Change in mouse weight ([3]; 16 Days after drug treatment): 98.6 ±4.9
- Change in mouse weight ([3]; 18 Days after drug treatment): 100.0 ±5.3
- Change in mouse weight ([3]; 21 Days after drug treatment): 101.8 ±7.3
- difference in body weight according to the administration of the drugs ([3]; day 2 to day 21): almost no difference in body weight
- Tumor size increase (Vt—V0) ([4]; oral once a day, Day 0): 0.0±0.0
- Tumor size increase (Vt—V0) ([4]; oral once a day, Day 2): 11.4±11.7
- Inhibition rate (tumor size increase) ([4]; oral once a day, Day 2, vs control): 5.8%
- Tumor size increase (Vt—V0) ([4]; oral once a day, Day 5): 18.1±9.4
- Inhibition rate (tumor size increase) ([4]; oral once a day, Day 5, vs control): 10.8%
- Tumor size increase (Vt—V0) ([4]; oral once a day, Day 7): 28.6±3.0
- Inhibition rate (tumor size increase) ([4]; oral once a day, Day 7, vs control): 11.7%
- Tumor size increase (Vt—V0) ([4]; oral once a day, Day 9): 42.0±9.8
- Inhibition rate (tumor size increase) ([4]; oral once a day, Day 9, vs control): 20.9%
- Inhibition rate (tumor size increase) ([4]; oral once a day, Day 12, vs control): 27.0%
- Tumor size increase (Vt—V0) ([4]; oral once a day, Day 14): 134.6±37.6
- Inhibition rate (tumor size increase) ([4]; oral once a day, Day 14, vs control): 26.0%
- Tumor size increase (Vt—V0) ([4]; oral once a day, Day 16): 211.8±32.9
- Inhibition rate (tumor size increase) ([4]; oral once a day, Day 16, vs control): 27.0%
- Tumor size increase (Vt—V0) ([4]; oral once a day, Day 19): 362.2±64.2
- Inhibition rate (tumor size increase) ([4]; oral once a day, Day 19, vs control): 31.5%
- Tumor size increase (Vt—V0) ([4]; oral once a day, Day 21): 493.4±82.6
- Inhibition rate (tumor size increase) ([4]; oral once a day, Day 21, vs control): 33.0%
- Tumor size increase (Vt—V0) ([4]; oral once a day, Day 23): 646.9±108.8
- Tumor weight at Day 23 ([4]; oral once a day, Day 23): 0.745 ± 0.196 g
- Tumor weight reduction rate compared to control group ([4]; oral once a day, Day 23): 29.5%
- Inhibition rate (tumor size increase) ([4]; oral once a day, Day 23, vs control): 34.1%
- tumor size compared to the control group ([4]; oral, after day 19): statistically significantly smaller
